Measured values reported in ChEMBL document CHEMBL4811227, “Biosynthesis of Nonimmunosuppressive ProlylFK506 Analogues with Neurite Outgrowth and Synaptogenic Activity” (J Nat Prod, 2021).
Calls of active or inactive are those of the source. The calls are words filed in the database; no cut-off is given here.

Key:
CD4+ve Th [1] = assay: Immunosuppressive activity in C57BL/6J mouse CD4+ve T cells assessed as inhibition of CD3/CD28-stimulated CD4+ve T cell proliferation by measuring fold reduction incubated for 72 hrs by CellTrace-violet staining based flow cytometry analysis relative to FK506; type: functional
CD4+ve Th [2] = assay: Immunosuppressive activity in C57BL/6J mouse CD4+ve T cells assessed as inhibition of CD3/CD28-stimulated CD4+ve T cell proliferation incubated for 72 hrs by CellTrace-violet staining based flow cytometry analysis; type: functional
[3] = Neurotrophic activity in ICR mouse primary hippocampal neuron assessed as increase in relative spontaneous excitatory postsynaptic current frequency at -70 mV holding potential at 1 ng/ml incubated for 10 to 14 days in presence of bicuculline methiodide; type: functional; conditions: time 10-14 day
[4] = test system: Primary hippocampal neuron; assay: Neurotrophic activity in ICR mouse primary hippocampal neuron assessed as induction of neurite outgrowth at 1 ng/ml measured after 48 hrs by photographic imaging analysis; type: functional, tissue-based

Question: Which “fold change (FC)” value (CD4+ve Th [1]) does the source give for `CCC[C@@H]1/C=C(\C)C[C@H](C)C[C@H](OC)[C@H]2O[C@@](O)(CC(=O)N3CCC[C@H]3C(=O)O[C@H](/C(C)=C/[C@@H]3CC[C@@H](O)[C@H](O)C3)[C@H](C)[C@@H](O)CC1=O)[C@H](C)C[C@@H]2OC` here?
Answer: Its value is 220000.

Question: What about the IC50 (CD4+ve Th [2]) of the same compound?
Answer: Its IC50 is 7.27 µM.

Question: And the Activity [3]?
Answer: The Activity was 2.63.

Question: And the Activity [4]?
Answer: The Activity was “Active”.

Question: With `C=CC[C@@H]1/C=C(\C)C[C@H](C)C[C@H](OC)[C@H]2O[C@@](O)(C(=O)C(=O)N3CCCC[C@H]3C(=O)O[C@H](/C(C)=C/[C@@H]3CC[C@@H](O)[C@H](OC)C3)[C@H](C)[C@@H](O)CC1=O)[C@H](C)C[C@@H]2OC` [TACROLIMUS ANHYDROUS] as the compound, how does the IC50 (CD4+ve Th [2]) read?
Answer: Its IC50 is 3.4e-05 µM.

Question: What about the Activity [3] of the same compound?
Answer: Its Activity is 2.61.

Question: What does the source list for `CCC[C@@H]1/C=C(\C)C[C@H](C)C[C@H](OC)[C@H]2O[C@@](O)(C(=O)C(=O)N3CCC[C@H]3C(=O)O[C@H](/C(C)=C/[C@@H]3CC[C@@H](O)[C@H](OC)C3)[C@H](C)[C@@H](O)CC1=O)[C@H](C)C[C@@H]2OC`?
Answer: fold change (FC) (CD4+ve Th [1]): 120000; IC50 (CD4+ve Th [2]): 3.97 µM; Activity [3]: 3.29; Activity [4]: Active
